# In ChEMBL document CHEMBL4304811, “Development of a Water-Soluble Indolylmaleimide Derivative IM-93 Showing Dual Inhibition of Ferroptosis and NETosis” (ACS Med Chem Lett, 2019):
# Active and inactive are the calls of the source. The rule behind the calls is not given here.
# Key:
# [1] = biological target: AP2-associated protein kinase 1 (Homo sapiens) (UniProt Q2M2I8); assay: Binding affinity to wild-type human partial length AAK1 (G25 to L333 residues) expressed in bacterial expression system assessed as residual binding level at 10 uM by Kinomescan method relative to control
# [2] = biological target: Activin receptor type-1B (Homo sapiens) (UniProt P36896); assay: Binding affinity to wild-type human ACVR1B (S187 to I505 residues) expressed in bacterial expression system assessed as residual binding level at 10 uM by Kinomescan method relative to control
# [3] = biological target: Tyrosine-protein kinase receptor UFO (Homo sapiens) (UniProt P30530); assay: Binding affinity to wild-type human partial length AXL (R497 to Y821 residues) expressed in bacterial expression system assessed as residual binding level at 10 uM by Kinomescan method relative to control
# [4] = biological target: Calcium/calmodulin-dependent protein kinase kinase 1 (Homo sapiens) (UniProt Q8N5S9); assay: Binding affinity to wild-type human partial length CAMKK1 (R65 to E414 residues) expressed in bacterial expression system assessed as residual binding level at 10 uM by Kinomescan method relative to control
# [5] = test system: Epidermal growth factor receptor (Homo sapiens), P00533 [L858R]; assay: Binding affinity to human partial length EGFR L858R mutant (R669 to V1011 residues) expressed in bacterial expression system assessed as residual binding level at 10 uM by Kinomescan method relative to control
# [6] = biological target: Ephrin type-A receptor 2 (Homo sapiens) (UniProt P29317); assay: Binding affinity to wild-type human partial length EPHA2 (T593 to V891 residues) expressed in bacterial expression system assessed as residual binding level at 10 uM by Kinomescan method relative to control
# [7] = biological target: Ephrin type-A receptor 8 (Homo sapiens) (UniProt P29322); assay: Binding affinity to wild-type human partial length EPHA8 (Q608 to C920 residues) expressed in bacterial expression system assessed as residual binding level at 10 uM by Kinomescan method relative to control
# [8] = test system: Receptor-type tyrosine-protein kinase FLT3 (Homo sapiens), P36888 [D835Y]; assay: Binding affinity to human partial length FLT3 D835Y mutant (Q580 to Y969 residues) expressed in bacterial expression system assessed as residual binding level at 10 uM by Kinomescan method relative to control
# [9] = biological target: Vascular endothelial growth factor receptor 3 (Homo sapiens) (UniProt P35916); assay: Binding affinity to wild-type human partial length FLT4 (E821 to E1196 residues) expressed in bacterial expression system assessed as residual binding level at 10 uM by Kinomescan method relative to control
# [10] = test system: Mast/stem cell growth factor receptor Kit (Homo sapiens), P10721 [V559D,T670I]; assay: Binding affinity to human partial length KIT V559D/T670I double mutant (Y545 to D952 residues) expressed in bacterial expression system assessed as residual binding level at 10 uM by Kinomescan method relative to control
# [11] = biological target: Tyrosine-protein kinase Lck (Homo sapiens) (UniProt P06239); assay: Binding affinity to wild-type human partial length LCK (R207 to P509 residues) expressed in bacterial expression system assessed as residual binding level at 10 uM by Kinomescan method relative to control
# [12] = biological target: Serine/threonine-protein kinase MAK (Homo sapiens) (UniProt P20794); assay: Binding affinity to wild-type human partial length MAK (M1 to P314 residues) expressed in bacterial expression system assessed as residual binding level at 10 uM by Kinomescan method relative to control
# [13] = biological target: Serine/threonine-protein kinase MARK2 (Homo sapiens) (UniProt Q7KZI7); assay: Binding affinity to wild-type human partial length MARK2 (M1 to R450 residues) expressed in bacterial expression system assessed as residual binding level at 10 uM by Kinomescan method relative to control
# [14] = biological target: Mitogen-activated protein kinase kinase kinase 14 (Homo sapiens) (UniProt Q99558); assay: Binding affinity to wild-type human partial length NIK (L318 to P947 residues) expressed in mammalian expression system assessed as residual binding level at 10 uM by Kinomescan method relative to control
# [15] = test system: Phosphatidylinositol 4,5-bisphosphate 3-kinase catalytic subunit alpha isoform (Homo sapiens), P42336 [M1043I]; assay: Binding affinity to human partial length PIK3CA M1043I mutant (R108 to N1068 residues) expressed in mammalian expression system assessed as residual binding level at 10 uM by Kinomescan method relative to control
# [16] = biological target: Serine/threonine-protein kinase pim-1 (Homo sapiens) (UniProt P11309); assay: Binding affinity to wild-type human partial length PIM1 (A15 to K313 residues) expressed in bacterial expression system assessed as residual binding level at 10 uM by Kinomescan method relative to control
# [17] = biological target: Serine/threonine-protein kinase PLK1 (Homo sapiens) (UniProt P53350); assay: Binding affinity to wild-type human partial length PLK1 (A33 to F325 residues) expressed in mammalian expression system assessed as residual binding level at 10 uM by Kinomescan method relative to control
# [18] = biological target: Serine/threonine-protein kinase RIO2 (Homo sapiens) (UniProt Q9BVS4); assay: Binding affinity to wild-type human partial length RIOK2 (M1 to D313 residues) expressed in mammalian expression system assessed as residual binding level at 10 uM by Kinomescan method relative to control
# [19] = biological target: Receptor-interacting serine/threonine-protein kinase 4 (Homo sapiens) (UniProt P57078); assay: Binding affinity to wild-type human partial length RIPK4 (M1 to V303 residues) expressed in mammalian expression system assessed as residual binding level at 10 uM by Kinomescan method relative to control
# [20] = biological target: Tyrosine-protein kinase TXK (Homo sapiens) (UniProt P42681); assay: Binding affinity to wild-type human partial length TXK (L238 to W527 residues) expressed in bacterial expression system assessed as residual binding level at 10 uM by Kinomescan method relative to control
# [21] = biological target: Serine/threonine-protein kinase ULK2 (Homo sapiens) (UniProt Q8IYT8); assay: Binding affinity to wild-type human partial length ULK2 (M1 to S301 residues) expressed in mammalian expression system assessed as residual binding level at 10 uM by Kinomescan method relative to control
# [22] = biological target: Wee1-like protein kinase 2 (Homo sapiens) (UniProt P0C1S8); assay: Binding affinity to wild-type human partial length WEE2 (M204 to K492 residues) expressed in bacterial expression system assessed as residual binding level at 10 uM by Kinomescan method relative to control
# [23] = biological target: Serine/threonine-protein kinase 32A (Homo sapiens) (UniProt Q8WU08); assay: Binding affinity to wild-type human full length YANK1 (M1 to L396 residues) expressed in mammalian expression system assessed as residual binding level at 10 uM by Kinomescan method relative to control
# THP-1 = assay: Inhibition of Staphylococcus aureus-induced pyroptosis in human THP1 cells at 10 uM preincubated for 1 hr followed by bacterial infection and measured after 2 hrs by INT dye based LDH assay; type: functional, cell-based
structure (smiles),measurement,setting,value
CC(C)N1C(=O)C(NCCCN(C)C)=C(c2cn(C)c3ccccc23)C1=O.Cl,Activity,[1],100%
same,Activity,[2],88%
same,Activity,[3],99%
same,Activity,[4],93%
same,Activity,[5],82%
same,Activity,[6],90%
same,Activity,[7],89%
same,Activity,[8],94%
same,Activity,[9],99%
same,Activity,[10],100%
same,Activity,[11],92%
same,Activity,[12],100%
same,Activity,[13],93%
same,Activity,[14],93%
same,Activity,[15],67%
same,Activity,[16],100%
same,Activity,[17],85%
same,Activity,[18],91%
same,Activity,[19],100%
same,Activity,[20],88%
same,Activity,[21],80%
same,Activity,[22],100%
same,Activity,[23],67%
same,inhibition,THP-1,inactive
